Assay results taken from publication PMC5053523, “In Vitro Antibacterial Activity of Rhodanine Derivatives against Pathogenic Clinical Isolates” (PLoS ONE, 2016).
Values after ≈ are worked out from the molar mass of the structure shown. Like-named read-outs stand apart in the source and are kept apart here.

Tests used:
Acinetobacter baumannii [1] = assay: Broth microdilution MIC, Acinetobacter baumannii; type: cell-based
Acinetobacter baumannii [2] = assay: MIC with/without PMBN, Acinetobacter baumannii; type: cell-based
Outline: (§1)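 Gram-negative MICs were determined for rhodanines alongside control antibiotics, each combined with sub-inhibitory colistin or PMBN. Further testing used the efflux-deficient E. coli SM1411ΔacrAB, missing the AcrAB multidrug pump.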

[3] = test system: Vancomycin Resistant Staphylococcus aureus (VRSA); assay: Broth microdilution MIC/MBC, VRSA; type: cell-based; conditions: for MBC / MIC: VRSA
Bacillus anthracis = assay: microbe, parasite or virus in culture; type: cell-based
[4] = test system: vancomycin resistant enterococci (VRE) E. faecalis; assay: Broth microdilution MIC/MBC, VRE E. faecalis; type: cell-based; conditions: for MIC: read-out: MIC
MRSA USA300 = assay: MIC against MRSA USA300 with and without 4% human serum albumin; type: cell-based, Staphylococcus aureus; conditions: Staphylococcus aureus, read-out: MIC against MRSA USA300
Outline: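 Broth microdilution MIC per CLSI against MRSA USA300, run in tryptic soy broth alone and with 4% human serum albumin. MIC is the lowest concentration inhibiting growth.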

[5] = test system: vancomycin resistant enterococci (VRE); assay: Broth microdilution MIC50/MIC90, VRE panel; type: cell-based; conditions: Enterococcus, 10 VRE strains
Salmonella Typhimurium = assay: MIC with/without PMBN, Salmonella Typhimurium; type: cell-based
Outline: as §1

B. licheniformis = assay: Broth microdilution MIC/MBC, B. licheniformis; type: cell-based; conditions: Bacillus licheniformis; for MBC: read-out: MBC; for MIC: read-out: MIC
Klebsiella pneumoniae = assay: MIC with/without PMBN, Klebsiella pneumoniae; type: cell-based
Outline: as §1

Clostridium difficile = assay: MIC against Clostridium difficile, anaerobic broth dilution; type: cell-based; conditions: Clostridioides difficile
Outline: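 Clinical C. difficile isolates grown anaerobically 48 h at 37 °C, suspended to 0.5 McFarland and diluted 1:300 in pre-reduced supplemented Brain Heart Infusion broth. Compounds serially diluted; plates incubated anaerobically at 37 °C for 48 h. MIC = lowest concentration with no visible growth.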

[6] = E. faecalis NR31972 Strain SF 28073
[7] = NCIB9375, B. licheniformis Gibson 46 (NCIB 9375) NR-2494
[8] = NRS712, B. licheniformis NRS 712 NR-2499

O=C(O)[C@H](Cc1ccccc1)N1C(=O)/C(=C/c2cccc(OC/C=C/c3ccc(Cl)c(Cl)c3)c2)SC1=S [Rh 6] showed an MIC (Acinetobacter baumannii [1]; ATCC13345) of over 128 µM, an MIC (Acinetobacter baumannii [1]; ATCC17786) of over 128 µM and an MIC (Acinetobacter baumannii [2]; Acinetobacter baumannii ATCC BAA747, PMBN (+) 4 μg/mL, read-out: MIC) of over 64 µM. It also gave an MIC (Acinetobacter baumannii [2]; Acinetobacter baumannii ATCC BAA19606, PMBN (+) 4 μg/mL, read-out: MIC) of over 64 µM, an MIC (Acinetobacter baumannii [2]; Acinetobacter baumannii, ATCCBAA747) of over 128 µM and an MIC (Acinetobacter baumannii [2]; Acinetobacter baumannii, ATCCBAA19606) of over 128 µM. It also gave an MIC50 ([3]; 15 VRSA strains, read-out: MIC 50) of 4 µM (≈ 2.28 µg/mL), an MIC90 ([3]; 15 VRSA strains, read-out: MIC 90) of 8 µM (≈ 4.56 µg/mL) and an MBC ([3]; VRSA 1, read-out: MBC) of over 64 µM. It also gave an MIC ([3]; VRSA 1, read-out: MIC) of 8 µM (≈ 4.56 µg/mL), an MBC ([3]; VRSA 2, read-out: MBC) of 8 µM (≈ 4.56 µg/mL) and an MIC ([3]; VRSA 2, read-out: MIC) of 8 µM (≈ 4.56 µg/mL). For the same compound, the MBC ([3]; VRSA 3a, read-out: MBC) was 8 µM (≈ 4.56 µg/mL), the MIC ([3]; VRSA 3a, read-out: MIC) was 8 µM (≈ 4.56 µg/mL) and the MBC ([3]; VRSA 3b, read-out: MBC) was 16 µM (≈ 9.13 µg/mL). For the same compound, the MIC ([3]; VRSA 3b, read-out: MIC) was 8 µM (≈ 4.56 µg/mL), the MBC ([3]; VRSA 4, read-out: MBC) was 8 µM (≈ 4.56 µg/mL) and the MIC ([3]; VRSA 4, read-out: MIC) was 4 µM (≈ 2.28 µg/mL). For the same compound, the MBC ([3]; VRSA 5, read-out: MBC) was 16 µM (≈ 9.13 µg/mL), the MIC ([3]; VRSA 5, read-out: MIC) was 4 µM (≈ 2.28 µg/mL) and the MBC ([3]; VRSA 6, read-out: MBC) was 32 µM (≈ 18.3 µg/mL). The MIC ([3]; VRSA 6, read-out: MIC) was 4 µM (≈ 2.28 µg/mL), the MBC ([3]; VRSA 7, read-out: MBC) was 8 µM (≈ 4.56 µg/mL) and the MIC ([3]; VRSA 7, read-out: MIC) was 8 µM (≈ 4.56 µg/mL). The MBC ([3]; VRSA 8, read-out: MBC) was 16 µM (≈ 9.13 µg/mL), the MIC ([3]; VRSA 8, read-out: MIC) was 4 µM (≈ 2.28 µg/mL) and the MBC ([3]; VRSA 9, read-out: MBC) was 16 µM (≈ 9.13 µg/mL). The MIC ([3]; VRSA 9, read-out: MIC) was 8 µM (≈ 4.56 µg/mL), the MBC ([3]; VRSA 10, read-out: MBC) was 16 µM (≈ 9.13 µg/mL) and the MIC ([3]; VRSA 10, read-out: MIC) was 4 µM (≈ 2.28 µg/mL). It also gave an MBC ([3]; VRSA 11a, read-out: MBC) of 64 µM (≈ 36.5 µg/mL), an MIC ([3]; VRSA 11a, read-out: MIC) of 4 µM (≈ 2.28 µg/mL) and an MBC ([3]; VRSA 11b, read-out: MBC) of 32 µM (≈ 18.3 µg/mL). It also gave an MIC ([3]; VRSA 11b, read-out: MIC) of 4 µM (≈ 2.28 µg/mL), an MBC ([3]; VRSA 12, read-out: MBC) of 32 µM (≈ 18.3 µg/mL) and an MIC ([3]; VRSA 12, read-out: MIC) of 4 µM (≈ 2.28 µg/mL). The MBC ([3]; VRSA 13, read-out: MBC) was 32 µM (≈ 18.3 µg/mL), the MIC ([3]; VRSA 13, read-out: MIC) was 8 µM (≈ 4.56 µg/mL) and the MBC (Bacillus anthracis; Bacillus anthracis AMES35) was 2 µM (≈ 1.14 µg/mL). It also gave an MIC (Bacillus anthracis; Bacillus anthracis AMES35) of 2 µM (≈ 1.14 µg/mL), an MBC (Bacillus anthracis; Bacillus anthracis UM23) of 2 µM (≈ 1.14 µg/mL) and an MIC (Bacillus anthracis; Bacillus anthracis UM23) of 2 µM (≈ 1.14 µg/mL). The MBC (Bacillus anthracis; Bacillus anthracis Weybridge) was 2 µM (≈ 1.14 µg/mL), the MIC (Bacillus anthracis; Bacillus anthracis Weybridge) was 2 µM (≈ 1.14 µg/mL) and the MBC ([4]; E. faecalis ERV103 HM-934) was 16 µM (≈ 9.13 µg/mL). For the same compound, the MIC ([4]; E. faecalis ERV103 HM-934) was 8 µM (≈ 4.56 µg/mL), the MBC [4, 6] was 16 µM (≈ 9.13 µg/mL) and the MIC [4, 6] was 8 µM (≈ 4.56 µg/mL). The MBC ([4]; E. faecalis R712 HM-335) was 8 µM (≈ 4.56 µg/mL), the MIC ([4]; E. faecalis R712 HM-335) was 4 µM (≈ 2.28 µg/mL) and the MBC ([4]; E. faecalis S613 HM-334) was 16 µM (≈ 9.13 µg/mL). For the same compound, the MIC ([4]; E. faecalis S613 HM-334) was 8 µM (≈ 4.56 µg/mL), the MBC ([4]; E. faecalis TX0104 HM-201) was 8 µM (≈ 4.56 µg/mL) and the MIC ([4]; E. faecalis TX0104 HM-201) was 8 µM (≈ 4.56 µg/mL). For the same compound, the MIC (MRSA USA300; 24 h, Media TSB + 4% HSA) was over 64 µM, the MIC (MRSA USA300; Media TSB) was 8 µM (≈ 4.56 µg/mL) and the MIC90 ([5]; VRE, read-out: MIC 90) was 8 µM (≈ 4.56 µg/mL). The MIC50 ([5]; read-out: MIC 50) was 8 µM (≈ 4.56 µg/mL), the MIC (Salmonella Typhimurium; Salmonella Typhimurium ATCC 700720, PMBN (+) 4 μg/mL, read-out: MIC) was over 128 µM and the MIC (Salmonella Typhimurium; Salmonella enterica, ATCC 700720 / TYPHIMURIUM) was over 128 µM. It also gave an MBC (B. licheniformis; [7]) of 4 µM (≈ 2.28 µg/mL), an MIC (B. licheniformis; [7]) of 4 µM (≈ 2.28 µg/mL) and an MBC (B. licheniformis; [8]) of 4 µM (≈ 2.28 µg/mL). The MIC (B. licheniformis; [8]) was 4 µM (≈ 2.28 µg/mL), the MIC (Klebsiella pneumoniae; Klebsiella pneumoniae ATCC BAA 1706, PMBN (+) 4 μg/mL) was over 64 µM and the MIC (Klebsiella pneumoniae; Klebsiella pneumoniae ATCC BAA 2146, PMBN (+) 4 μg/mL) was over 64 µM. For the same compound, the MIC (Klebsiella pneumoniae; Klebsiella pneumoniae, BAA1706) was over 128 µM, the MIC (Klebsiella pneumoniae; Klebsiella pneumoniae, BAA2146) was over 128 µM and the MIC (Clostridium difficile; C. difficile HM-88) was 4 µM (≈ 2.28 µg/mL). For the same compound, the MIC (Clostridium difficile; C. difficile HM-745) was 4 µM (≈ 2.28 µg/mL), the MIC (Clostridium difficile; C. difficile HM-746) was 2 µM (≈ 1.14 µg/mL) and the MIC (Clostridium difficile; C. difficile Isolate-1 NR-13427) was 4 µM (≈ 2.28 µg/mL). The MIC (Clostridium difficile; C. difficile Toxigenic Strain P8 NR-32888) was 8 µM (≈ 4.56 µg/mL).
